Experimental data taken from patent US7348425B2, “Inhibitors of HCV replication” (Bristol-Myers Squibb Company, priority 2004, dated 2008).
pEC50, pIC50: −log10 of the molar value.

What was measured:
[1] = target: T1, HCV NS5B RdRp genotype 1b (Hepatitis C virus genotype 1b, UniProt Q9WMX2); experiment: Modified HCV NS5B RdRp enzyme assay (with preincubation); format: biochemical; conditions: modified method (with preincubation)
T1 construct: The protein was expressed with an 18 amino acid C-terminal truncation to enhance the solubility; made in house; host or cells: E. coli BL21 (DE3), pET21a
Protocol: HCVNS5B RdRp cloning, expression, and purification. The cDNA encoding the NS5B protein of HCV, genotype 1b, was cloned into the pET21a expression vector. The protein was expressed with an 18 amino acid C-terminal truncation to enhance the solubility. The E. coli competent cell line BL21 (DE3) was used for expression of the protein. Cultures were grown at 37° C. for ˜4 hours until the cultures reached an optical density of 2.0 at 600 nm. The cultures were cooled to 20° C. and induced with 1 mM IPTG. Fresh ampicillin was added to a final concentration of 50 μg/ml and the cells were grown overnight at 20° C.
Cell pellets (3 L) were lysed for purification to yield 15-24 mgs of purified NS5B. The lysis buffer consisted of 20 mM Tris-HCl, pH 7.4, 500 mM NaCl, 0.5% triton X-100, 1 mM DTT, 1 mM EDTA, 20% glycerol, 0.5 mg/ml lysozyme, 10 mM MgCl2, 15 ug/ml deoxyribonuclease I, and Complete TM protease inhibitor tablets (Roche). After addition of the lysis buffer, frozen cell pellets were resuspended using a tissue homogenizer. To reduce the viscosity of the sample, aliquots of the lysate were sonicated on ice using a microtip attached to a Branson sonicator. The sonicated lysate was centrifuged at 100,000×g for 1 hr at 4° C. and filtered through a 0.2 μm filter unit (Corning).
The protein was purified using three sequential chromatography steps: Heparin sepharose CL-6B, polyU sepharose 4B, and Hitrap SP sepharose (Pharmacia). The chromatography buffers were identical to the lysis buffer but contained no lysozyme, deoxyribonuclease I, MgCl2 or protease inhibitor and the NaCl concentration of the buffer was adjusted according to the requirements for charging the protein onto the column. Each column was eluted with a NaCl gradient which varied in length from 5-50 column volumes depending on the column type. After the final chromatography step, the resulting purity of the enzyme is >90% based on SDS-PAGE analysis. The enzyme was aliquoted and stored at −80° C.
Standard HCV NS5B RdRp enzyme assay. HCV RdRp genotype Ib assays were run in a final volume of 60 μl in 96 well plates (Costar 3912). The assay buffer is composed of 20 mM Hepes, pH 7.5, 2.5 mM KCl, 2.5 mM MgCl2, 1 mM DTT, 1.6 U RNAse inhibitor (Promega N2515), 0.1 mg/ml BSA (Promega R3961), and 2% glycerol. All compounds were serially diluted (3-fold) in DMSO and diluted further in water such that the final concentration of DMSO in the assay was 2%. HCV RdRp genotype 1b enzyme was used at a final concentration of 28 nM. A polyA template was used at 6 nM, and a biotinylated oligo-dT12 primer was used at 180 nM final concentration. Template was obtained commercially (Amersham 27-4110). Biotinylated primer was prepared by Sigma Genosys. ^3H-UTP was used at 0.6 μCi (0.29 μM total UTP). Reactions were initiated by the addition of enzyme, incubated at 30° C. for 60 min, and stopped by adding 25 μl of 50 mM EDTA containing SPA beads (4 μg/μl, Amersham RPNQ 0007). Plates were read on a Packard Top Count NXT after >1 hr incubation at room temperature.
Modified HCV NS5B RdRp enzyme assay. A modified enzyme assay was performed essentially as described for the standard enzyme assay except for the following: The biotinylated oligo dT12 primer was precaptured on streptavidin-coated SPA beads by mixing primer and beads in assay buffer and incubating at room temperature for one hour. Unbound primer was removed after centrifugation. The primer-bound beads were resuspended in 20 mM Hepes buffer, pH 7.5 and used in the assay at final concentrations of 20 nM primer and 0.67 μg/μl beads. Order of addition in the assay: enzyme (14 nM) was added to diluted compound followed by the addition of a mixture of template (0.2 nM), ^3H-UTP (0.6 μCi, 0.29 μM), and primer-bound beads, to initiate the reaction; concentrations given are final. Reactions were allowed to proceed for 4 hours at 30° C.
The IC50 values for compounds were determined using seven different [I]. […]

HCV replicon = HCV replicon FRET assay; format: cell-based; conditions: Hepatitis C virus; FRET assay; read-out: EC50
Protocol: The IC50 values for compounds were determined using seven different [I]. IC50 values were calculated from the inhibition using the formula y=A+((B−A)/(1+((C/x)^D))). FRET Assay Preparation. To perform the HCV FRET screening assay, 96-well cell culture plates were used. The FRET peptide (Anaspec, Inc.) (Taliani et al., Anal. Biochem. 240:60-67 (1996), hereby incorporated by reference in its entirety) contains a fluorescence donor, EDANS, near one end of the peptide and an acceptor, DABCYL, near the other end. The fluorescence of the peptide is quenched by […] resonance energy transfer (RET) between the donor and the acceptor, but as the NS3 protease cleaves the peptide the products are released from RET quenching and the fluorescence of the donor becomes apparent. The assay reagent was made as follows: 5× cell Luciferase cell culture lysis reagent from Promega (#E153A) diluted to 1× with dH2O, NaCl added to 150 mM final, the FRET peptide diluted to 20 uM final from a 2 mM stock.
To prepare plates, HCV replicon cells, with or without a Renilla luciferase reporter gene, were trypsinized and placed into each well of a 96-well plate with titrated test compounds added in columns 3 through 12; columns 1 and 2 contained a control compound (HCV protease inhibitor), and the bottom row contained cells without compound. The plates were then placed in a CO2 incubator at 37 degrees C.
Assays. Subsequent to addition of the test compounds described above (FRET Assay Preparation), at various times the plate was removed and Alamar blue solution (Trek Diagnostics, #00-100) was added per well as a measure of cellular toxicity. After reading in a Cytoflour 4000 instrument (PE Biosystems), plates were rinsed with PBS and then used for FRET assay by the addition of 30 ul of the FRET peptide assay reagent described above (FRET Assay Preparation) per well. The plate was then placed into the Cytoflour 4000 instrument which had been set to 340 excite/490 emission, automatic mode for 20 cycles and the plate read in a kinetic mode. Typically, the signal to noise using an endpoint analysis after the reads was at least three-fold. Alternatively, after Alamar blue reading, plates were rinsed with PBS, 50 ul of DMEM (high glucose) without phenol red was added and plates were then used for luciferase assay using the Promega Dual-Glo Luciferase Assay System.
Compound analysis was determined by quantification of the relative HCV replicon inhibition and the relative cytotoxicity values. To calculate cytoxicity values, the average Alamar Blue fluorescence signals from the control wells were set as 100% non-toxic. The individual signals in each of the compound test wells were then divided by the average control signal and multiplied by 100% to determine […]. To calculate the HCV replicon inhibition values, an average background value was obtained from the two wells containing the highest amount of HCV protease inhibitor at the end of the assay period. These numbers were similar to those obtained from naïve Huh-7 cells.
The background numbers were then subtracted from the average signal obtained from the control wells and this number was used as 100% activity. The individual signals in each of the compound test wells were then divided by the averaged control values after background subtraction and multiplied by 100% to determine percent activity. EC50 values for a protease inhibitor titration were calculated as the concentration which caused a 50% reduction in FRET or luciferase activity. The two numbers generated for the compound plate, percent cytoxicity and percent activity were used to determine compounds of interest for further analysis.

T1 sequence (Q9WMX2 2420-2992): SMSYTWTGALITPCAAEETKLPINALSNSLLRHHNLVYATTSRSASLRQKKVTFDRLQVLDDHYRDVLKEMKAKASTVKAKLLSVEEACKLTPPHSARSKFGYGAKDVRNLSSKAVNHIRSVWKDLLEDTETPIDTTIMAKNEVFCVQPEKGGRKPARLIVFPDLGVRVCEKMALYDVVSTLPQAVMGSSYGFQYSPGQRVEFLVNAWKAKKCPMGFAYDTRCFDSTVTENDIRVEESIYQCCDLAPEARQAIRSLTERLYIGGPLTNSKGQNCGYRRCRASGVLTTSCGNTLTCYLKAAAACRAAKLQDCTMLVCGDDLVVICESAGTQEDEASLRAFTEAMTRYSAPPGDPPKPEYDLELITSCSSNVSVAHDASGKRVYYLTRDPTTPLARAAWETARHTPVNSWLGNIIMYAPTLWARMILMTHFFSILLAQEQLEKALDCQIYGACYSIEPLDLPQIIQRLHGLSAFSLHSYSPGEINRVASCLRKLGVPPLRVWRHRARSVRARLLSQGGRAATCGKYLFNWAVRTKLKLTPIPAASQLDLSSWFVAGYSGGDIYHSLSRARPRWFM

Compound | pIC50 [1] | pEC50 (HCV replicon)
CN(C)CCNC(=O)C1=Cc2ccccc2-c2c(C3CCCCC3)c3ccc(C(=O)NC4(C(=O)Nc5ccc6c(c5)cc(C(=O)O)n6C)CCCC4)cc3n2C1 | 6.00 to 7.70 | 6.00 to 8.00
COC(=O)/C=C/c1ccc2[nH]c(C3(NC(=O)c4ccc5c(C6CCCCC6)c6n(c5c4)CC(=O)Nc4ccccc4-6)CCCC3)nc2c1 | 6.00 to 7.70 | > 7.00
CCOC(=O)/C=C/c1ccc(NC(=O)C2(NC(=O)c3ccc4c(C5CCCCC5)c5n(c4c3)CC(=O)Nc3ccccc3-5)CCNCC2)cc1 | 6.00 to 7.70 | 6.00 to 8.00
COC(=O)c1ccc2c(C3CCCCC3)c3n(c2c1)CC(=O)N(CCN(C)C)c1ccccc1-3 | < 6.00 | 5.00 to 6.00
CN1C(=O)Cn2c(c(C3CCCCC3)c3ccc(C(=O)NC4(C(=O)Nc5ccc6c(c5)cc(C(=O)O)n6C)CCCC4)cc32)-c2ccccc21 | 6.00 to 7.70 | 6.00 to 8.00
O=C1Cn2c(c(C3CCCCC3)c3ccc(C(=O)NS(=O)(=O)N4CCCC4)cc32)-c2ccccc2N1 | 6.00 to 7.70 | 6.00 to 8.00
CN(Cc1ccccc1)S(=O)(=O)NC(=O)c1ccc2c(C3CCCCC3)c3n(c2c1)CC(=O)Nc1ccccc1-3 | 6.00 to 7.70 | 6.00 to 8.00
O=C(O)/C=C/c1ccc2[nH]c(C3(NC(=O)c4ccc5c(C6CCCCC6)c6c7ccccc7ncn6c5c4)CCCC3)nc2c1 | 6.00 to 7.70 | 6.00 to 8.00
CN(C)CCN1C(=O)Cn2c(c(C3CCCCC3)c3ccc(C(=O)O)cc32)-c2ccccc21 | 6.00 to 7.70 | 6.00 to 8.00
COC(=O)/C=C/c1ccc(CN(C)S(=O)(=O)NC(=O)c2ccc3c(C4CCCCC4)c4n(c3c2)CC(=O)Nc2ccccc2-4)cc1 | 6.00 to 7.70 | 6.00 to 8.00
COC(=O)c1ccc(CN(C)S(=O)(=O)NC(=O)c2ccc3c(C4CCCCC4)c4n(c3c2)CC(=O)Nc2ccccc2-4)cc1 | 6.00 to 7.70 | 6.00 to 8.00
CN(Cc1ccc(C(=O)O)cc1)S(=O)(=O)NC(=O)c1ccc2c(C3CCCCC3)c3n(c2c1)CC(=O)Nc1ccccc1-3 | 6.00 to 7.70 | 5.00 to 6.00
CN(Cc1ccc(/C=C/C(=O)O)cc1)S(=O)(=O)NC(=O)c1ccc2c(C3CCCCC3)c3n(c2c1)CC(=O)Nc1ccccc1-3 | 6.00 to 7.70 | 5.00 to 6.00
COC(=O)/C=C/c1ccc(NC(=O)C2(NC(=O)c3ccc4c(C5CCCCC5)c5n(c4c3)CCCc3sc(C)nc3-5)CCCC2)cc1 | < 6.00 | < 5.00
Cc1nc2c(s1)CCCn1c-2c(C2CCCCC2)c2ccc(C(=O)O)cc21 | < 6.00 | < 5.00
Nc1nc2c(s1)CCCn1c-2c(C2CCCCC2)c2ccc(C(=O)O)cc21 | < 6.00 | < 5.00

Compound | pIC50 [1] | pEC50 (HCV replicon)
Cc1nc2c(s1)CCCn1c-2c(C2CCCCC2)c2ccc(C(=O)NC3(C(=O)Nc4ccc(/C=C/C(=O)O)cc4)CCCC3)cc21 | 6.00 to 7.70 | 5.00 to 6.00
N#CC1C(=O)Cn2c(c(C3CCCCC3)c3ccc(C(=O)O)cc32)-c2ccccc21 (centres unmarked) | 6.00 to 7.70 | < 5.00
COc1cc(CNC(=O)c2ccc3c(C4CCCCC4)c4n(c3c2)CC(=O)Nc2ccccc2-4)ccc1O | 6.00 to 7.70 | > 7.00
O=C(O)c1ccc2c(C3CCCCC3)c3n(c2c1)CCCc1ocnc1-3 | < 6.00 | < 5.00
COC(=O)/C=C/c1ccc(NC(=O)C2(NC(=O)c3ccc4c(C5CCCCC5)c5n(c4c3)CCCc3sc(N)nc3-5)CCCC2)cc1 | < 6.00 | < 5.00
Nc1nc2c(s1)CCCn1c-2c(C2CCCCC2)c2ccc(C(=O)NC3(C(=O)Nc4ccc(/C=C/C(=O)O)cc4)CCCC3)cc21 | 6.00 to 7.70 | 5.00 to 6.00
NC(=O)C1(NC(=O)c2ccc3c(C4CCCCC4)c4n(c3c2)CC(=O)Nc2ccccc2-4)CCCC1 | 6.00 to 7.70 | 6.00 to 8.00
O=C1Cn2c(c(C3CCCCC3)c3ccc(C(=O)NS(=O)(=O)N4CCN(c5ccccc5)CC4)cc32)-c2ccccc2N1 | 6.00 to 7.70 | 5.00 to 6.00
COC(=O)c1ccc2c(c1)CCN(S(=O)(=O)NC(=O)c1ccc3c(C4CCCCC4)c4n(c3c1)CC(=O)Nc1ccccc1-4)C2 | 6.00 to 7.70 | 5.00 to 6.00
O=C(O)/C=C/c1cccc(-c2nc(C3(NC(=O)c4ccc5c(C6CCCCC6)c6n(c5c4)CC=Cc4ccccc4-6)CCCC3)c[nH]2)c1 | 6.00 to 7.70 | 6.00 to 8.00
COC(=O)/C=C/c1ccc(NC(=O)C2(NC(=O)c3ccc4c(C5CCCCC5)c5n(c4c3)CCCc3ocnc3-5)CCCC2)cc1 | < 6.00 | 5.00 to 6.00
O=C(O)/C=C/c1ccc(NC(=O)C2(NC(=O)c3ccc4c(C5CCCCC5)c5n(c4c3)CCCc3ocnc3-5)CCCC2)cc1 | 6.00 to 7.70 | 6.00 to 8.00
O=C(NC1(C(=O)OCc2ccccc2)CCCC1)c1ccc2c(C3CCCCC3)c3n(c2c1)CCCc1cc(O)ccc1-3 | < 6.00 | 5.00 to 6.00
O=C(O)c1ccc2c(C3CCCCC3)c3n(c2c1)CCOc1ncccc1-3 | 6.00 to 7.70 | 5.00 to 6.00
CCOC(=O)c1nc(-c2ccc(NC(=O)C3(NC(=O)c4ccc5c(C6CCCCC6)c6n(c5c4)CCCc4ccccc4-6)CCCC3)cc2)cs1 | < 6.00 | 6.00 to 8.00
